Laboratory results from patent US8476197B2, “Aminopropenoates as fungicides” (priority 2009, dated 2013).
Marks after values point to notes of the source that are not given here.

Conditions: pH 2.3

| SMILES | Log P |
| --- | --- |
| COC(=O)C(C#N)=C(NCc1ncccn1)c1cccnc1Cl [Compound 13] | 1.57^[c]; 1.57^[b] |
| COC(=O)C(C#N)=C(NCC1OCCO1)c1cccnc1Cl [Compound 14] | 1.79 |
| COC(=O)C(C#N)=C(NC(C)c1nccs1)c1sc(C)nc1C(F)(F)F (stereo not drawn) [Compound 17] | 2.66 |
| COC(=O)C(C#N)=C(NC(C)c1nccs1)c1sccc1Cl (stereo not drawn) [Compound 18] | 2.61 |
| COC(=O)C(C#N)=C(NCC1CCCS1)c1cccnc1Cl (stereo not drawn) [Compound 20] | 2.63 |
| COC(=O)C(C#N)=C(NC1CCSC1)c1cccnc1Cl (stereo not drawn) [Compound 22] | 2.4 |
| CCOC(=O)C(C#N)=C(NC(C)c1nccs1)c1cccnc1F (stereo not drawn) [Compound 79] | 2.47 |

Same assay, conditions: pH 2.7

| SMILES | Log P |
| --- | --- |
| COC(=O)C(C#N)=C(NC(C)c1nccs1)c1sc(C)nc1C(F)(F)F (stereo not drawn) [Compound 17] | 2.78 |
| CCOC(=O)C(C#N)=C(NCc1ccccn1)c1cn(C)nc1C(F)F [Compound 32] | 1.94^[a] |
| CCOC(=O)C(C#N)=C(NCc1ccccn1)c1c(C)nn(C)c1F [Compound 39] | 1.91^[a] |
| CCOC(=O)C(C#N)=C(NCc1ccccn1)c1ncc(C(F)(F)F)cc1Cl [Compound 42] | 2.98^[a] |
| COC(=O)C(C#N)=C(NCc1ccccn1)c1cn(C)nc1C(F)F [Compound 58] | 1.63^[a] |
| CCOC(=O)C(C#N)=C(NC(C)c1nc(C)c(C)s1)c1cn(C)nc1C(F)(F)F (stereo not drawn) [Compound 64] | 3.48^[a] |
| CCOC(=O)C(C#N)=C(NC(C)Cc1c[nH]c2ccccc12)c1cn(C)nc1C(F)(F)F (stereo not drawn) [Compound 65] | 3.73^[a] |
| CCOC(=O)C(C#N)=C(NCc1nccs1)c1cccnc1Cl [Compound 66] | 2.07^[a] |
| COC(=O)C(C#N)=C(NCc1nccs1)c1cn(C)nc1C(F)F [Compound 67] | 1.72^[a] |
| CCOC(=O)C(C#N)=C(NCc1nccs1)c1cn(C)nc1C(F)F [Compound 68] | 2^[a] |
| CCOC(=O)C(C#N)=C(NC(c1cc2ccccc2s1)C(F)(F)F)c1nsc(Cl)c1Cl (stereo not drawn) [Compound 69] | 5.11^[a] |
| CCOC(=O)C(C#N)=C(NCc1ccccn1)c1nsc(Cl)c1Cl [Compound 70] | 2.84^[a] |
| CCOC(=O)C(C#N)=C(NC(C)c1ccccn1)c1nsc(Cl)c1Cl (stereo not drawn) [Compound 71] | 3.35^[a] |
| CCOC(=O)C(C#N)=C(NC(c1cc2ccccc2s1)C(F)(F)F)c1ncc(C(F)(F)F)cc1Cl (stereo not drawn) [Compound 73] | 4.94^[a] |
| CCOC(=O)C(C#N)=C(NC(C)c1nc(C)c(C)s1)c1conc1C (stereo not drawn) [Compound 74] | 3.02^[a] |
| CCOC(=O)C(C#N)=C(NCc1nccs1)c1ncc(C(F)(F)F)cc1Cl [Compound 75] | 2.84^[a] |
| CCOC(=O)C(C#N)=C(NCc1nccs1)c1conc1C [Compound 76] | 2.04^[a] |
| CCOC(=O)C(C#N)=C(NC(C)c1nccs1)c1conc1C (stereo not drawn) [Compound 77] | 2.4^[a] |
| CCOC(=O)C(C#N)=C(NC(C)Cc1c[nH]c2ccccc12)c1conc1C (stereo not drawn) [Compound 78] | 3.15^[a] |
| CCOC(=O)C(C#N)=C(NCc1nccs1)c1c(C)nn(C)c1F [Compound 80] | 2.01^[a] |
| CCOC(=O)C(C#N)=C(NCc1ccccn1)c1conc1C [Compound 81] | 1.96^[a] |
| CCOC(=O)C(C#N)=C(NC(C)c1ccccn1)c1conc1C (stereo not drawn) [Compound 82] | 2.36^[a] |

| SMILES | Log P |
| --- | --- |
| COC(=O)C(C#N)=C(NCc1nccs1)c1ncc(C(F)(F)F)cc1Cl [Compound 83] | 2.63^[a] |
| CCOC(=O)C(C#N)=C(NC(C)c1nccs1)c1sccc1Br (stereo not drawn) [Compound 85] | 3.13^[a] |
| CCOC(=O)C(C#N)=C(NCc1nccs1)c1c(C)nn(C)c1Cl [Compound 86] | 2.13^[a] |
| CCOC(=O)C(C#N)=C(NCc1ccccn1)c1c(C)nn(C)c1Cl [Compound 87] | 2.02^[a] |
| CCOC(=O)C(C#N)=C(NCc1nccs1)c1sccc1Br [Compound 88] | 2.67^[a] |
| CCOC(=O)C(C#N)=C(NC(C)Cc1c[nH]c2ccccc12)c1sccc1Br (stereo not drawn) [Compound 91] | 3.8^[a] |
| CCOC(=O)C(C#N)=C(NC(C)c1nc(C)c(C)s1)c1sccc1Br (stereo not drawn) [Compound 92] | 3.8^[a] |
| CCOC(=O)C(C#N)=C(NC(c1cc2ccccc2s1)C(F)(F)F)c1conc1C (stereo not drawn) [Compound 93] | 4.24^[a] |
| CCOC(=O)C(C#N)=C(NC(C)c1nc(C)c(C)s1)c1c(C)nn(C)c1Cl (stereo not drawn) [Compound 94] | 3.12^[a] |
| CCOC(=O)C(C#N)=C(NCc1nccs1)c1sccc1C(F)(F)F [Compound 95] | 2.82^[a] |
| CCOC(=O)C(C#N)=C(NC(C)c1nccs1)c1sccc1C(F)(F)F (stereo not drawn) [Compound 96] | 3.31^[a] |
| CCOC(=O)C(C#N)=C(NC(C)c1nc(C)c(C)s1)c1sccc1C(F)(F)F (stereo not drawn) [Compound 97] | 3.92^[a] |
| CCOC(=O)C(C#N)=C(NC(C)c1nccs1)c1c(C)nn(C)c1Cl (stereo not drawn) [Compound 98] | 2.52^[a] |
| CCOC(=O)C(C#N)=C(NCc1ccccn1)c1sccc1Br [Compound 99] | 2.61^[a] |
| CCOC(=O)C(C#N)=C(NC(C)c1ccccn1)c1sccc1Br (stereo not drawn) [Compound 100] | 3.1^[a] |
| CCOC(=O)C(C#N)=C(NCc1ccccn1)c1sccc1C(F)(F)F [Compound 102] | 2.84^[a] |
| CCOC(=O)C(C#N)=C(NC(C)c1ccccn1)c1sccc1C(F)(F)F (stereo not drawn) [Compound 103] | 3.27^[a] |
| CCOC(=O)C(C#N)=C(NCc1nccs1)c1ccsc1Br [Compound 104] | 2.66^[a] |
| CCOC(=O)C(C#N)=C(NC(C)c1nccs1)c1ccsc1Br (stereo not drawn) [Compound 105] | 3.1^[a] |
| CCOC(=O)C(C#N)=C(NC(C)Cc1c[nH]c2ccccc12)c1ccsc1Br (stereo not drawn) [Compound 106] | 3.8^[a] |
| CCOC(=O)C(C#N)=C(NC(c1cc2ccccc2s1)C(F)(F)F)c1sccc1C(F)(F)F (stereo not drawn) [Compound 107] | 4.89^[a] |
| CCOC(=O)C(C#N)=C(NC(C)Cc1c[nH]c2ccccc12)c1sccc1C(F)(F)F (stereo not drawn) [Compound 108] | 3.94^[a] |

| SMILES | Log P |
| --- | --- |
| COC(=O)C(C#N)=C(NC(C)c1cccnc1)c1cccnc1Cl (stereo not drawn) [Compound 109] | 0.82^[a] |
| COC(=O)C(C#N)=C(NC(C)c1ccccn1)c1cccnc1Cl (stereo not drawn) [Compound 110] | 1.99^[a] |
| CCOC(=O)C(C#N)=C(NC(C)c1nc(C)c(C)s1)c1ccsc1Br (stereo not drawn) [Compound 112] | 3.7^[a] |
| CCOC(=O)C(C#N)=C(NC(C)Cc1cc2ccccc2[nH]1)c1c(C)nn(C)c1Cl (stereo not drawn) [Compound 113] | 3.24^[a] |
| CCOC(=O)C(C#N)=C(NCc1ccccn1)c1ccsc1Br [Compound 115] | 2.53^[a] |
| CCOC(=O)C(C#N)=C(NC(C)c1ccccn1)c1ccsc1Br (stereo not drawn) [Compound 116] | 3.1^[a] |
| CCOC(=O)C(C#N)=C(NC(C)C1CCCO1)c1cc(C)oc1C (stereo not drawn) [Compound 118] | 3.27^[a] |
| CCOC(=O)C(C#N)=C(NC1CCCCNC1=O)c1cc(C)oc1C (stereo not drawn) [Compound 119] | 2.14^[a] |
| COC(=O)C(C#N)=C(NC1COC1)c1cccnc1Cl [Compound 120] | 1.35^[a] |
| COC(=O)C(C#N)=C(NC(CN1CCOCC1)C1CC1)c1cccnc1Cl (stereo not drawn) [Compound 121] | 1.38^[a] |
| COC(=O)C(C#N)=C(NC1CSC1)c1cccnc1Cl [Compound 122] | 2.08^[a] |
| COC(=O)C(C#N)=C(NC1CCCCNC1=O)c1cccnc1Cl (stereo not drawn) [Compound 123] | 1.57^[a] |
| COC(=O)C(C#N)=C(NC(C)c1ncc(Br)cc1Cl)c1cccnc1Cl (stereo not drawn) [Compound 124] | 3.24^[a] |
| COC(=O)C(C#N)=C(NC1CCS(=O)(=O)C1)c1cccnc1Cl (stereo not drawn) [Compound 125] | 1.33^[a] |
| COC(=O)C(C#N)=C(NC(C)C1CCCO1)c1cccnc1Cl (stereo not drawn) [Compound 126] | 2.17^[a] |
| COC(=O)C(C#N)=C(NCc1nccs1)c1sc(C)nc1C(F)(F)F [Compound 132] | 2.33^[a] |
| COC(=O)C(C#N)=C(NCc1ccccn1)c1sc(C)nc1C(F)(F)F [Compound 134] | 2.37^[a] |
| CCOC(=O)C(C#N)=C(NCc1nccs1)c1cn(C)nc1C(F)(F)F [Compound 138] | 2.43^[a] |
| CCOC(=O)C(C#N)=C(NCc1ccccn1)c1cn(C)nc1C(F)(F)F [Compound 139] | 2.36^[a] |
| CCOC(=O)C(C#N)=C(NCc1nccs1)c1sc(C)nc1C(F)(F)F [Compound 141] | 2.66^[a] |

Same assay, conditions: pH 7.5

| SMILES | Log P |
| --- | --- |
| COC(=O)C(C#N)=C(NCc1ncccn1)c1cccnc1Cl [Compound 13] | 1.57^[c]; 1.57^[b] |
| COC(=O)C(C#N)=C(NCC1OCCO1)c1cccnc1Cl [Compound 14] | 1.77 |
| COC(=O)C(C#N)=C(NC(C)c1nc2ccccc2s1)c1cccnc1Cl (stereo not drawn) [Compound 15] | 2.95 |
| COC(=O)C(C#N)=C(NCC1CCCO1)c1cccnc1Cl (stereo not drawn) [Compound 16] | 2.03 |
| COC(=O)C(C#N)=C(NC(C)c1nccs1)c1sc(C)nc1C(F)(F)F (stereo not drawn) [Compound 17] | 2.63 |
| COC(=O)C(C#N)=C(NC(C)c1nccs1)c1sccc1Cl (stereo not drawn) [Compound 18] | 2.59 |
| COC(=O)C(C#N)=C(NC(C)c1nc(C)c(C)s1)c1cccnc1Cl (stereo not drawn) [Compound 19] | 2.69 |
| COC(=O)C(C#N)=C(NCC1CCCS1)c1cccnc1Cl (stereo not drawn) [Compound 20] | 2.47 |
| COC(=O)C(C#N)=C(NC(C)c1nccs1)c1cccnc1Br (stereo not drawn) [Compound 21] | 2.12 |
| COC(=O)C(C#N)=C(NC1CCSC1)c1cccnc1Cl (stereo not drawn) [Compound 22] | 2.23 |
| CC(C)OC(=O)C(C#N)=C(NC(C)c1nccs1)c1cccnc1Cl (stereo not drawn) [Compound 23] | 2.7 |
| CCOC(=O)C(C#N)=C(NC(C)c1nccs1)c1ccc(C)nc1Cl (stereo not drawn) [Compound 24] | 2.62 |
| CC(NC(=C(C#N)C(=O)OC(C)(C)C)c1cccnc1Cl)c1nccs1 (stereo not drawn) [Compound 25] | 3.07 |
| COC(=O)C(C#N)=C(NC(C)c1sc(C)nc1C)c1cccnc1Cl (stereo not drawn) [Compound 26] | 2.17 |
| CC(C)COC(=O)C(C#N)=C(NC(C)c1nccs1)c1cccnc1Cl (stereo not drawn) [Compound 28] | 3.13 |
| CC(C)OC(=O)C(C#N)=C(NC(C)c1nc2ccccc2s1)c1cccnc1Cl (stereo not drawn) [Compound 29] | 3.63 |
| CC(NC(=C(C#N)C(=O)OCC(F)(F)F)c1cccnc1Cl)c1nccs1 (stereo not drawn) [Compound 30] | 2.67 |
| CCOC(=O)C(C#N)=C(NC(C)c1nccs1)c1ccc(Cl)nc1Cl (stereo not drawn) [Compound 72] | 3.01 |
| CCOC(=O)C(C#N)=C(NC(C)c1nccs1)c1cccnc1F (stereo not drawn) [Compound 79] | 2.32 |
| CCOC(=O)C(C#N)=C(NC(C)Cn1cncn1)c1cccnc1Cl (stereo not drawn) [Compound 84] | 1.59 |
| C=CCOC(=O)C(C#N)=C(NC(C)c1nccs1)c1cccnc1Cl (stereo not drawn) [Compound 89] | 2.56 |
| CCOC(=O)C(C#N)=C(NC(C)Cn1nc(C(F)(F)C(F)(F)F)nc1SC)c1cccnc1Cl (stereo not drawn) [Compound 127] | 3.66 |
